ChEMBL document CHEMBL5291721, “A preclinical secondary pharmacology resource illuminates target-adverse drug reaction associations of marketed drugs” (Nat Commun, 2023)

What was measured:
[1] = molecular target: T1, Neuropeptide Y receptor type 1 (Homo sapiens, UniProt P25929)
T1 sequence (P25929 whole entry): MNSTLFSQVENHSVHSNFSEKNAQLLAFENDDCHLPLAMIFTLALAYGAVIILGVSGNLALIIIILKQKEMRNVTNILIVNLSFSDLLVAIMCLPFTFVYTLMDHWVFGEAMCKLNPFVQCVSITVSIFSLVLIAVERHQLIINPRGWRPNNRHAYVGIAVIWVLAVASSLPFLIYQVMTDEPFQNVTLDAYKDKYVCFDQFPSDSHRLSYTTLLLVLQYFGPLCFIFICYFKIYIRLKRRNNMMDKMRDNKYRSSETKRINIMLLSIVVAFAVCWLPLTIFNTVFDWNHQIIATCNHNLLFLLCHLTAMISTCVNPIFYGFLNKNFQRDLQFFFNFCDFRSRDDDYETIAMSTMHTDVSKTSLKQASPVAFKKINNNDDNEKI

[2] = molecular target: cGMP-inhibited 3',5'-cyclic phosphodiesterase 3A (Homo sapiens, UniProt Q14432); type: functional
cGMP-inhibited 3',5'-cyclic phosphodiesterase 3A, sequence (Q14432 whole entry): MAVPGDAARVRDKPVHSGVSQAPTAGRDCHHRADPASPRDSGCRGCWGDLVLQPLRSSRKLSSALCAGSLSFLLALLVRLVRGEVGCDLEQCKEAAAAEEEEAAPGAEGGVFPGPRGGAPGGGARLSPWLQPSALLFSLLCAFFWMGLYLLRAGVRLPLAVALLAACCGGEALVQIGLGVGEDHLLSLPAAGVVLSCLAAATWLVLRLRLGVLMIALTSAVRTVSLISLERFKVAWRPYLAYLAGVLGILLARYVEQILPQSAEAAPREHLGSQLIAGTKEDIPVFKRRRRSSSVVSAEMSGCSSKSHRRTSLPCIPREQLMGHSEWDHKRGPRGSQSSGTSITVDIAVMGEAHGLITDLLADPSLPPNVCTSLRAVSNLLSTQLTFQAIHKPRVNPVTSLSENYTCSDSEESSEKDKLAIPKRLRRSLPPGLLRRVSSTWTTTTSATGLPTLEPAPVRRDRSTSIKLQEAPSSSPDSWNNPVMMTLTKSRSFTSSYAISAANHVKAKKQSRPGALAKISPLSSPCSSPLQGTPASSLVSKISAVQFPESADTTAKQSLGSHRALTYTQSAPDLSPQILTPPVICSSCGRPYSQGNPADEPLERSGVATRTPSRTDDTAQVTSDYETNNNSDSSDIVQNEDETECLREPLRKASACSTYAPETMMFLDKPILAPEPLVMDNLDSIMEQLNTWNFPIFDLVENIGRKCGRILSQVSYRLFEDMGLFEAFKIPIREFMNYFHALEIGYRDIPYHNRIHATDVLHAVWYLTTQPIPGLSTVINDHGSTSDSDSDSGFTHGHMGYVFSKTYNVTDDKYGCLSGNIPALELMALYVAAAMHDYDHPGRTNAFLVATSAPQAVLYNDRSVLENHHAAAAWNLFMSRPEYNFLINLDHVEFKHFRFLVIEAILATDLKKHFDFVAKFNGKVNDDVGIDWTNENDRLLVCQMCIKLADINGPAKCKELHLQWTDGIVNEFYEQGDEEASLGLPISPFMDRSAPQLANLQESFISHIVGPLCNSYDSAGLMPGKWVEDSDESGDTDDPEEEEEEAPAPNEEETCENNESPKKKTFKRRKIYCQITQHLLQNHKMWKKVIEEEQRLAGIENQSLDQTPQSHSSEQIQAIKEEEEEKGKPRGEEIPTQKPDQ

Motilin receptor = Motilin receptor (Homo sapiens, UniProt O43193)
Motilin receptor, sequence (O43193 whole entry): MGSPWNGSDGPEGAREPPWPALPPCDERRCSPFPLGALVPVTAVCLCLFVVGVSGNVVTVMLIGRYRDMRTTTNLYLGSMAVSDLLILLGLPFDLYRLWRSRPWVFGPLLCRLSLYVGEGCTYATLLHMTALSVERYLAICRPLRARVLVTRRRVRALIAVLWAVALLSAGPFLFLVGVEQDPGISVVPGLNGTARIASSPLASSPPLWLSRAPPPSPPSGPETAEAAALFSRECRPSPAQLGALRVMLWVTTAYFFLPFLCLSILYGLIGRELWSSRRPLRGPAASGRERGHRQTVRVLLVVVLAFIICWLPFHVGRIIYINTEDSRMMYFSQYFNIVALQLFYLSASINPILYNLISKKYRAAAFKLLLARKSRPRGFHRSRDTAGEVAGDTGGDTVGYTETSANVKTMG

[3] = molecular target: T2, Prostaglandin G/H synthase 1 (Rattus norvegicus, UniProt Q63921); type: functional
T2 sequence (Q63921 whole entry): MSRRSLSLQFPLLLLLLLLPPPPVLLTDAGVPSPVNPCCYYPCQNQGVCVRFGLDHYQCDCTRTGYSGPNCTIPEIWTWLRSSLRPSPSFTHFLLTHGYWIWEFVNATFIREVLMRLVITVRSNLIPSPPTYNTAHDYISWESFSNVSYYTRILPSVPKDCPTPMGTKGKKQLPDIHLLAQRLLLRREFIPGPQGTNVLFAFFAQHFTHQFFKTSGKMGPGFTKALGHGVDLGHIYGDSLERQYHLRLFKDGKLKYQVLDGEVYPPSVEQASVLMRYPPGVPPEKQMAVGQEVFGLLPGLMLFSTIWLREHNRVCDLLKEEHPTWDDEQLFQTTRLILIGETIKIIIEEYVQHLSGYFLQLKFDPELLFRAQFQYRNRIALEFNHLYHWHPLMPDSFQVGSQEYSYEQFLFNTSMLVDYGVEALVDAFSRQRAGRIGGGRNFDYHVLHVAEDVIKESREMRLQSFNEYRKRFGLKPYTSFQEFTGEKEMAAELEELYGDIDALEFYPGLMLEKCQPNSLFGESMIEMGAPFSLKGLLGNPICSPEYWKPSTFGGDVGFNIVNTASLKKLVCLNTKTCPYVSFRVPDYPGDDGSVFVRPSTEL

D(3) dopamine receptor = D(3) dopamine receptor (Homo sapiens, UniProt P35462)
D(3) dopamine receptor, sequence (P35462 whole entry): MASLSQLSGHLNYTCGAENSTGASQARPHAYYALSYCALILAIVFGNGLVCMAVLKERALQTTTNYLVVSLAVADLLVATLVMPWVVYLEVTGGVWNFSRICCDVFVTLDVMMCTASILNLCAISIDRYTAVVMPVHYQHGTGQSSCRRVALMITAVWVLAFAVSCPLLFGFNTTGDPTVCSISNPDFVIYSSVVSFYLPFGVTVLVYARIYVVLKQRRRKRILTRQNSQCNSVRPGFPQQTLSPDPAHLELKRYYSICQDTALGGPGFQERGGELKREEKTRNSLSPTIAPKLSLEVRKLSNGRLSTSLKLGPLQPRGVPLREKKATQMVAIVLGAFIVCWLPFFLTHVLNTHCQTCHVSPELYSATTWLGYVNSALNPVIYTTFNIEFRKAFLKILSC

[4] = molecular target: T3, Alpha-1A adrenergic receptor (Homo sapiens, UniProt P35348); type: functional, cell-based
T3 sequence (P35348 whole entry): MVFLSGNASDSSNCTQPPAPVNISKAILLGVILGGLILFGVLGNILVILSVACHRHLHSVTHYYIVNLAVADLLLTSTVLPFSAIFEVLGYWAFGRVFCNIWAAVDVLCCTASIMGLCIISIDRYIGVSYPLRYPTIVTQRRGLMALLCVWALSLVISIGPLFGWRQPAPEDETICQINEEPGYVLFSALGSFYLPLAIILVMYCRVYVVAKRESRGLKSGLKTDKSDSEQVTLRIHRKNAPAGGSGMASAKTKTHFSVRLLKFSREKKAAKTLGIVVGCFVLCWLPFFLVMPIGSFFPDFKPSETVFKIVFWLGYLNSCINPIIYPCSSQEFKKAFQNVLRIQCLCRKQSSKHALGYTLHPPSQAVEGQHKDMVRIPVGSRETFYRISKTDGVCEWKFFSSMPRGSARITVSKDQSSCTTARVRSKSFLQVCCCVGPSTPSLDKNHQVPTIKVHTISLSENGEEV

[5] = molecular target: Sodium-dependent dopamine transporter (Homo sapiens, UniProt Q01959)
Sodium-dependent dopamine transporter, sequence (Q01959 whole entry): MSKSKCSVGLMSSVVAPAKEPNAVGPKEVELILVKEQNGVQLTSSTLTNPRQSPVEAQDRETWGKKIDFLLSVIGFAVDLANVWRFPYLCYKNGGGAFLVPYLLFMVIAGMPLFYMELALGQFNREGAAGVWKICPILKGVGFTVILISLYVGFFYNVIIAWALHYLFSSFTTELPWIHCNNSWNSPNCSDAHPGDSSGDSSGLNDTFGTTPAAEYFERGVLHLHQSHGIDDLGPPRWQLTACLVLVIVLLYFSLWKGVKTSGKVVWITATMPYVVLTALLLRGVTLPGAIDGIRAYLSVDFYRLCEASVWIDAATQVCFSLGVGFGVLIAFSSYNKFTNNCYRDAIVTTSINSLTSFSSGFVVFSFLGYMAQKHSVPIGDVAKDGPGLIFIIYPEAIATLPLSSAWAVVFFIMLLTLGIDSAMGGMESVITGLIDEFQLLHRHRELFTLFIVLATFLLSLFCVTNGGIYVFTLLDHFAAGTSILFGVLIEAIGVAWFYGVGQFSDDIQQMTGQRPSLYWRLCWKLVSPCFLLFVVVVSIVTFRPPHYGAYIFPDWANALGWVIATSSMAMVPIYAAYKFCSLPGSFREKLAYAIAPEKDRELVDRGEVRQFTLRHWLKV

[6] = molecular target: T4, 5-hydroxytryptamine receptor 3A (Homo sapiens, UniProt P46098); type: functional
T4 sequence (P46098 whole entry): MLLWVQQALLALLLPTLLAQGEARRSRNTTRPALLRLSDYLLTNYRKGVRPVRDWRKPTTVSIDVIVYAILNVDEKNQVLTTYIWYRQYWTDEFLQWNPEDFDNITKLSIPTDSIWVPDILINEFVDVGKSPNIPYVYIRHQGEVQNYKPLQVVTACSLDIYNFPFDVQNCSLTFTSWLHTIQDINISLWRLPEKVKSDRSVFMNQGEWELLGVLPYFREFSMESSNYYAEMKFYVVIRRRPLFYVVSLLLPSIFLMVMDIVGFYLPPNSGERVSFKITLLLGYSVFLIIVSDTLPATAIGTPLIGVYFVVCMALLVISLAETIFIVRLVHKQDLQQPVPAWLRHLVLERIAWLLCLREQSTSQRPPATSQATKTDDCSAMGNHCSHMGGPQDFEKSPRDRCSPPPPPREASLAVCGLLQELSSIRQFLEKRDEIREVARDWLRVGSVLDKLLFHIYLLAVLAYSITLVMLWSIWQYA

Adenosine receptor A2a = Adenosine receptor A2a (Homo sapiens, UniProt P29274)
Adenosine receptor A2a, sequence (P29274 whole entry): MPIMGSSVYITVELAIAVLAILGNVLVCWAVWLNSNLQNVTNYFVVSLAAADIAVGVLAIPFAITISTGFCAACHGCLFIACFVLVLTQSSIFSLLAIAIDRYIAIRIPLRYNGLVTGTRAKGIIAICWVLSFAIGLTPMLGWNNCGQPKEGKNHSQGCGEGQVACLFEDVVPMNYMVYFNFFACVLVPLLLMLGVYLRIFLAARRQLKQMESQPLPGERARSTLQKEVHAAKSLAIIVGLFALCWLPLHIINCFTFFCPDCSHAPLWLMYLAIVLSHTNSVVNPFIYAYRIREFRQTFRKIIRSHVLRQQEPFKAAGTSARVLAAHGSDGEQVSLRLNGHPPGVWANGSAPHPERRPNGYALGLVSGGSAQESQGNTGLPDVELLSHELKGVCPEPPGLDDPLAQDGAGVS

D(1A) dopamine receptor = D(1A) dopamine receptor (Homo sapiens, UniProt P21728); type: functional, cell-based
D(1A) dopamine receptor, sequence (P21728 whole entry): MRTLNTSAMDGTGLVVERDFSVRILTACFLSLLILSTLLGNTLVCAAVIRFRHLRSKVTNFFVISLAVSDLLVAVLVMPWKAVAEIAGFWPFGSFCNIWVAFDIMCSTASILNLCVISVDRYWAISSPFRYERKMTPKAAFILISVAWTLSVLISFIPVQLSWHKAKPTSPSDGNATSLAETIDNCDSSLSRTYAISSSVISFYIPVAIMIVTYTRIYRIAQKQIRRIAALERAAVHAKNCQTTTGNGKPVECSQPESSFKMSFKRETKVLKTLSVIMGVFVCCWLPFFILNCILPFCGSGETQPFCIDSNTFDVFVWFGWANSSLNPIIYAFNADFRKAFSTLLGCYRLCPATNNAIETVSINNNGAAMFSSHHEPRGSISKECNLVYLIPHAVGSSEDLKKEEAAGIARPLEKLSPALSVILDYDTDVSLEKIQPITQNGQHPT

[7] = molecular target: T3, Alpha-1A adrenergic receptor; type: functional, cell-based; remark: listed apart in the source
[8] = molecular target: Glutamate receptor ionotropic, NMDA 1 (Rattus norvegicus, UniProt P35439)
B2 bradykinin receptor = molecular target: T5, B2 bradykinin receptor (Homo sapiens, UniProt P30411)
T5 sequence (P30411 whole entry): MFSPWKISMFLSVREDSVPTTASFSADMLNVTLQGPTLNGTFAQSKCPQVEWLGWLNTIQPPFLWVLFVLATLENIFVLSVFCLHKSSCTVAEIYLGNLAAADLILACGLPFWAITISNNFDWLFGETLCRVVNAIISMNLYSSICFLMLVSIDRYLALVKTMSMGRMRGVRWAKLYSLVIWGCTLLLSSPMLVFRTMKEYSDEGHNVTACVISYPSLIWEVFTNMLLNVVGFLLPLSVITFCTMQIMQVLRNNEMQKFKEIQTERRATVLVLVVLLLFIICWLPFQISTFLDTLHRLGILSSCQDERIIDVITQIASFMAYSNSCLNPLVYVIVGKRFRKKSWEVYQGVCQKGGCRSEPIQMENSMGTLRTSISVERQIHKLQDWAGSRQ
Note: assay procedure not described here.

Compound | AC50 [1] [µM] | AC50 [2] [µM] | AC50 (Motilin receptor) [µM] | AC50 [3] [µM] | AC50 (D(3) dopamine receptor) [µM] | AC50 [4] [µM] | AC50 [5] [µM] | AC50 [6] [µM] | AC50 (Adenosine receptor A2a) [µM] | AC50 (D(1A) dopamine receptor) [µM] | AC50 [7] [µM] | AC50 [8] [µM] | AC50 (B2 bradykinin receptor) [µM]
O=C1C(O)=C([C@H]2CC[C@H](c3ccc(Cl)cc3)CC2)C(=O)c2ccccc21 [ATOVAQUONE] | > 30 | > 30 | > 30 | > 30 | > 30 | > 30 | > 30 | > 30 | > 30 | > 30 | > 30 | > 30 | > 30
COc1ccc(CCNCC(O)COc2cccc(C)c2)cc1OC (centres undefined) [BEVANTOLOL] | > 10 | > 30 | > 10 | > 10 | > 30 | > 30 | 16.2 | > 30 | > 10 | > 30 | 12 | > 10 | > 10
Brc1c(NC2=NCCN2)ccc2nccnc12 [BRIMONIDINE] | > 30 | > 30 | > 30 | > 30 | > 30 | 0.645 | > 30 | > 30 | > 30 | > 30 |  | > 30 | > 30
CC(CC1c2ccccc2CCc2ccccc21)CN(C)C (centres undefined) [BUTRIPTYLINE] |  | > 30 |  |  | 1.7 | > 30 |  | > 30 |  | > 30 | 15 | > 30 | 
CC(C)(C)NCC(O)COc1cccc2c1CCC(=O)N2 (centres undefined) [CARTEOLOL] | > 10 | > 30 | > 10 | > 10 | > 30 | > 30 | > 10 | > 30 | > 10 | > 10 | > 30 | > 10 | > 10
Nc1nc(Cl)nc2c1ncn2[C@H]1C[C@H](O)[C@@H](CO)O1 [CLADRIBINE] | > 30 | 28 | > 30 | > 30 | > 30 | > 30 | > 30 | > 30 | > 30 | > 30 | > 30 | > 30 | > 30
Clc1ccccc1C(c1ccccc1)(c1ccccc1)n1ccnc1 [CLOTRIMAZOLE] |  |  |  |  | > 30 | > 30 | 14.8 | > 30 |  |  | > 30 | > 10 | 
COc1ccc2c3c1O[C@H]1[C@@H](O)CC[C@H]4[C@@H](C2)N(C)CC[C@@]341 [DIHYDROCODEINE] |  | > 30 |  |  | > 30 | > 30 |  | > 30 |  | > 30 | > 30 | > 30 | 
NC(=O)OCC(COC(N)=O)c1ccccc1 [FELBAMATE] | > 10 | > 30 | > 10 | > 10 | > 10 |  | > 10 | > 30 | > 10 | > 10 |  | > 10 | > 10
Fc1ccc(C(c2ccccc2)(c2ccccc2F)n2ccnc2)cc1 (centres undefined) [FLUTRIMAZOLE] | > 30 | > 30 | 27 | > 30 | > 30 | > 30 | 23 | > 30 | > 30 | > 30 | > 30 | > 30 | > 30
Cc1c(OCC(F)(F)F)ccnc1C[S+]([O-])c1nc2ccccc2[nH]1 (centres undefined) [LANSOPRAZOLE] | 24.5 | > 10 | > 10 | > 30 | > 10 | > 30 | > 10 | 2.3 | > 30 | > 10 | > 30 | > 10 | > 30
NC(=O)CN1CC(O)CC1=O (centres undefined) [OXIRACETAM] | > 30 | > 30 | > 30 | > 30 | > 30 | > 30 | > 30 | > 30 | > 30 | > 30 | > 30 | > 30 | > 30
Cc1cc(C(C)(C)C)c(O)c(C)c1CC1=NCCN1 [OXYMETAZOLINE] |  | > 30 |  | > 30 | 20.1 |  | > 30 | > 30 |  | > 30 |  | > 30 | 
C[C@H]1COc2c(C3(N)CC3)c(F)cc3c(=O)c(C(=O)O)cn1c23 [PAZUFLOXACIN] | > 10 | > 30 | > 10 | > 30 | > 30 |  | > 10 | > 30 | > 10 | > 10 |  | > 10 | > 10
CC/C(=C(\c1ccccc1)c1ccc(OCCN(C)C)cc1)c1ccccc1 [TAMOXIFEN] |  |  |  |  | 2.9 | > 30 | 12.3 | > 30 |  |  | > 30 | > 10 | 
CC1(C)CCC(CN2CCN(c3ccc(C(=O)NS(=O)(=O)c4ccc(NCC5CCOCC5)c([N+](=O)[O-])c4)c(Oc4cnc5[nH]ccc5c4)c3)CC2)=C(c2ccc(Cl)cc2)C1 [VENETOCLAX] |  | > 30 |  | > 30 | > 30 |  | 22 |  |  | > 30 |  |  | 
THIMEROSAL |  |  |  |  |  |  |  |  |  | > 100 |  |  | 
